From patent publication US20180296588A1, “COMBINATION THERAPY FOR TREATING VIRAL INFECTIONS” (ContraVir Pharmaceuticals, Inc., priority 2017, published 2018)
Entries after “also recorded” stand apart in the source; their conditions may differ. Read-outs that look alike come from different tables or passages of the source.

What was measured:
[1] = system: HBV DNA replication in DES19 cells; assay: Inhibition of intracellular HBV DNA replication in HepDES19 cells (PCR); format: cell-based; conditions: Hepatitis B virus, HepDES19, read-out: IC50 for Compound II, DES19 cells
Procedure: (§1) The antiviral activity of Compound I and Compound II towards HBV was tested in various cell lines (HepAD38, HepDE19 and HepDES19). The HepAD38 cell line is derived from the HepG2 cell line and engineered to stably maintain HBV (see Ladner et al., Antimicrobial Agents and Chemotherapy, 1997, 41, 1715-1720, which is incorporated herein by reference in its entirety). DE19 and DES19 cell lines are human hepatoma derived cell lines (see Guo et al. J. Virol 2007, 81, 12472-84, which is incorporated herein by reference in its entirety). Active HBV replication in the cells was suppressed by inclusion of tetracycline in the cell culture medium, which binds to a tetracycline-sensitive promoter, and induced by removal of tetracycline. HBV replication was quantified by measuring the amount of HBV DNA in the cells.
(§2) Compound I and Compound II were applied to induced cells (i.e., cells without tetracycline), either alone or in combination at various concentrations. Next, intracellular DNA was isolated and HBV DNA was measured by polymerase chain reaction (PCR). The percent inhibition of HBV DNA was examined over the concentration ranges of 0-320 nM for Compound I and 0-640 nM for Compound II. Concentration versus effect curves were constructed for both drugs (FIGS. 1A and 1B, 2A and 2B, and 3A and 3B). […] See FIGS. 1B, 2B, and 3B (curves where [Compound II]=0).
(§3) The level of reduction in intracellular HBV DNA by the various combinations of Compound I and II as plotted in FIGS. 1 A and 1B, 2A and 2B, and 3A and 3B, was analyzed using the Shipman-Prichard synergy scoring program (MacSynergy™ II program, Prichard et al. Antiviral Research 1990), wherein the experimentally observed effect of each combination is compared to the theoretical, additive inhibition. The comparison is used to determine combination scores (effect volumes) that represent either synergistic (positive scores) or antagonistic (negative scores) effects. All the positive and negative scores are summed to calculate overall synergy and antagonism scores that reflect the entire concentration spectrum of the two drugs. The magnitude of the scores reflect the degree of synergism/antagonism and the likelihood of the synergistic/antagonistic activities being important in vivo, according to the following four categories: (1) Synergy/Antagonism Volume=0-25 (log volume <2): insignificant synergy/antagonism (i.e., only additive effects); (2) Synergy/Antagonism Volume=25-50 (log volume 2-5): minor but significant amount of synergy/antagonism; (3) Synergy/Antagonism Volume=50-100 (log volume 5-9): moderate synergy/antagonism that may be important in vivo; (4) Synergy/Antagonism Volume >100 (log volume >9): stronger synergy/antagonism that is probably important in vivo. IC50 values for Compound I in combination with different concentrations of Compound II, and Compound II in combination with different concentrations of Compound I, are presented in Tables 6 and 7, respectively.

[2] = system: HBV DNA replication in HepAD38 cells; assay: Inhibition of intracellular HBV DNA replication in HepAD38 cells (PCR); format: cell-based; conditions: Hepatitis B virus, HePAD38, read-out: IC50 for Compound II, AD38 cells
Procedure: as §1, §2, §3

[3] = system: HBV DNA replication in AD38, DES19 and DE19 cells; assay: In vitro combination study, statements covering AD38, DES19 and DE19 cells together; format: cell-based, hepatitis B virus; conditions: Compound I 5-320 nM and/or Compound II 10-640 nM; FIGS. 1-3
Procedure: The antiviral activity of Compound I and Compound II towards HBV was tested in various cell lines (HepAD38, HepDE19 and HepDES19). […] Active HBV replication in the cells was suppressed by inclusion of tetracycline in the cell culture medium, which binds to a tetracycline-sensitive promoter, and induced by removal of tetracycline. HBV replication was quantified by measuring the amount of HBV DNA in the cells.
The comparison is used to determine combination scores (effect volumes) that represent either synergistic (positive scores) or antagonistic (negative scores) effects. All the positive and negative scores are summed to calculate overall synergy and antagonism scores that reflect the entire concentration spectrum of the two drugs. […]

[4] = system: HBV DNA replication in DE19 cells; assay: Inhibition of intracellular HBV DNA replication in HepDE19 cells (PCR); format: cell-based; conditions: Hepatitis B virus, HepDE19, read-out: IC50 for Compound II, DE19 cells
Procedure: as §1, §2, §3

HBV = assay: Anti-HBV effects in the HBV transgenic mouse model; format: in vivo, HBV transgenic mice
Procedure: Compound I and Compound II were administered by once-daily oral gavage for 16 days to HBV transgenic mice which replicated HBV from a 1.3× overlength HBV genome integrated into the mouse genome. Expression occurred mostly in hepatocytes.
Treatment Groups (n=8/Group):
After 16 days of dosing, livers and serum were harvested and the following parameters were measured: a) HBV DNA by quantitative PCR (liver and serum) b) HBsAg by ELISA (liver and serum) c) HBeAg by ELISA (serum)

Structure (SMILES): CCCCCCCCCCCCCCCCOCCCOP(=O)(O)CO[C@H](C)Cn1cnc2c(N)ncnc21 [Compound II, 3-(hexadecyloxy)propyl hydrogen ((R)-1-(6-amino-9H-purin 9-yl)propan-2-yloxy)methylphosphonate]
- IC50 ([1]; Compound I 0 nM): 0.253 µM
- IC50 ([1]; Compound I 5 nM): 0.237 µM
- IC50 ([1]; Compound I 10 nM): 0.228 µM
- IC50 ([1]; Compound I 20 nM): 0.18 µM
- IC50 ([1]; Compound I 40 nM): 0.19 µM
- IC50 ([1]; Compound I 80 nM): 0.188 µM
- IC50 ([1]; Compound I 160 nM): 0.0866 µM
- IC50 ([1]; Compound I 320 nM): 0.0632 µM
- IC50 ([2]; Compound I 0 nM): 0.248 µM
- IC50 ([2]; Compound I 5 nM): 0.259 µM
- IC50 ([2]; Compound I 10 nM): 0.255 µM
- IC50 ([2]; Compound I 20 nM): 0.232 µM
- IC50 ([2]; Compound I 40 nM): 0.232 µM
- IC50 ([2]; Compound I 80 nM): 0.229 µM
- IC50 ([2]; Compound I 160 nM): 0.104 µM
- IC50 ([2]; Compound I 320 nM): 0.0997 µM
- intracellular HBV DNA compared to induced cells in the absence of the drug [3]: reduced intracellular HBV DNA in a concentration-dependent manner
- IC50 ([4]; Compound I 0 nM): 0.253 µM
- IC50 ([4]; Compound I 5 nM): 0.27 µM
- IC50 ([4]; Compound I 10 nM): 0.255 µM
- IC50 ([4]; Compound I 20 nM): 0.213 µM
- IC50 ([4]; Compound I 40 nM): 0.237 µM
- IC50 ([4]; Compound I 80 nM): 0.226 µM
- IC50 ([4]; Compound I 160 nM): 0.0839 µM
- IC50 ([4]; Compound I 320 nM): 0.11 µM
- serum HBsAg (HBV; Compound II alone (5 or 10 mg/kg/day) or with low-dose Compound I (10 mg/kg/day), oral, 16 days, FIG. 7): did not affect serum HBsAg
- liver HBsAg (HBV; alone or in combination, oral, 16 days, FIG. 8): did not affect
- serum HBV DNA (HBV; alone or in combination, oral, 16 days, FIG. 9): did not affect
- serum HBeAg (HBV; alone or in combination, oral, 16 days, FIG. 10): did not affect
- liver HBV DNA (copies per mg liver) (HBV; once-daily oral gavage 16 days, Compound I 10 or 50, Compound II 5 or 10 mg/kg/day, combination 10+5, FIG. 6): decreased liver HBV DNA; also recorded: highly efficacious
